{
  "source": "patent US20080075788A1",
  "about": "“DIAMMONIUM PHOSPHATE AND OTHER AMMONIUM SALTS AND THEIR USE IN PREVENTING CLOTTING” (priority 2006, published 2008)",
  "key": {"[1]": {"system": "whole human blood"}, "[2]": {"system": "whole sheep blood", "conditions": "liquid component added to blood, versus control", "procedure": "(§1) Coagulation time of fresh whole blood can be determined with the Lee-White test by visually observing clot formation. Activation of the intrinsic coagulation pathway can be determined by measuring the activated partial thromboplastin time (APTT) as for example, shown in the FIGURE. In this test, the time to formation of a fibrin clot in re-calcified citrated plasma is measured using a coagulation analyzer instrument."}, "[3]": {"system": "human plasma", "conditions": "for effect on the clotting time of human plasma: APTT test; for APTT Average: average of subjects", "procedure": "as §1\nClotting times of plasma samples were measured using the Amelung KC 4 A™ micro coagulation analyzer (Sigma Diagnostics, Germany). A cuvette was placed into a rotating well of the analyzer and a small stainless steel ball was dispensed into the cuvette. 100 μL of Pathromtin SL reagent were dispensed into the cuvette and then 100 μL of human plasma were added. For trials with the solution, 10 μL of water or of a solution dilution were added. After 2 minutes of incubation, 100 μL of CaCl2 were dispensed into each cuvette. The analyzer timer was started immediately and clotting time was recorded when the timer stopped.\nOn each day, control plasma N (normal) and control plasma P (abnormal/prolonged) were tested for quality control. At least two identical samples (duplicates) were tested simultaneously for each trial. The means and percent differences between duplicates were calculated. If the difference between duplicates was twenty percent or less, that trial's data was used for further analysis."}, "[4]": {"conditions": "listed as diammonium phosphate solution"}},
  "note": "Read-outs that look alike come from different tables or passages of the source.",
  "data": [
    {"compound": "N.N.O=P(O)(O)O", "note": "[Sample A liquid, diammonium hydrogen-phosphate]", "values": [
      {"measurement": "effect on clotting in whole human blood", "setting": "[1]", "value": "delay and/or prevent clotting"},
      {"measurement": "effect on the Lee-White clotting time of whole sheep blood", "setting": "[2]; listed as Sample A liquid component", "value": "prolonged"},
      {"measurement": "effect on the Lee-White clotting time of whole sheep blood", "setting": "[2]; [4]", "value": "delay and/or prevent clotting"},
      {"measurement": "effect on the clotting time of human plasma", "setting": "[3]; listed as diammonium hydrogen-phosphate solution", "value": "prolongs the clotting time of human plasma"},
      {"measurement": "effect on the clotting time of human plasma", "setting": "[3]; [4]", "value": "delay and/or prevent clotting"},
      {"measurement": "APTT Average", "setting": "[3]; NH4 Conc. 10 mM in the 310 μL total volume", "value": 42.7, "unit": "s"},
      {"measurement": "Subject APTT", "setting": "[3]; NH4 Conc. 10 mM in the 310 μL total volume, subject 1", "value": 49.8, "unit": "s"},
      {"measurement": "Subject APTT", "setting": "[3]; NH4 Conc. 10 mM in the 310 μL total volume, subject 2", "value": 36.5, "unit": "s"},
      {"measurement": "Subject APTT", "setting": "[3]; NH4 Conc. 10 mM in the 310 μL total volume, subject 3", "value": 42.6, "unit": "s"},
      {"measurement": "Subject APTT", "setting": "[3]; NH4 Conc. 10 mM in the 310 μL total volume, subject 4", "value": 42.9, "unit": "s"},
      {"measurement": "Subject APTT", "setting": "[3]; NH4 Conc. 10 mM in the 310 μL total volume, subject 5", "value": 47.9, "unit": "s"},
      {"measurement": "Subject APTT", "setting": "[3]; NH4 Conc. 10 mM in the 310 μL total volume, subject 6", "value": 39.0, "unit": "s"},
      {"measurement": "Subject APTT", "setting": "[3]; NH4 Conc. 10 mM in the 310 μL total volume, subject 7", "value": 32.5, "unit": "s"},
      {"measurement": "Subject APTT", "setting": "[3]; NH4 Conc. 10 mM in the 310 μL total volume, subject 8", "value": 50.9, "unit": "s"},
      {"measurement": "APTT Average", "setting": "[3]; NH4 Conc. 20 mM in the 310 μL total volume", "value": 50.8, "unit": "s"},
      {"measurement": "Subject APTT", "setting": "[3]; NH4 Conc. 20 mM in the 310 μL total volume, subject 1", "value": 64.5, "unit": "s"},
      {"measurement": "Subject APTT", "setting": "[3]; NH4 Conc. 20 mM in the 310 μL total volume, subject 2", "value": 46.3, "unit": "s"},
      {"measurement": "Subject APTT", "setting": "[3]; NH4 Conc. 20 mM in the 310 μL total volume, subject 4", "value": 47.3, "unit": "s"},
      {"measurement": "Subject APTT", "setting": "[3]; NH4 Conc. 20 mM in the 310 μL total volume, subject 5", "value": 62.2, "unit": "s"},
      {"measurement": "Subject APTT", "setting": "[3]; NH4 Conc. 20 mM in the 310 μL total volume, subject 6", "value": 38.0, "unit": "s"},
      {"measurement": "Subject APTT", "setting": "[3]; NH4 Conc. 20 mM in the 310 μL total volume, subject 7", "value": 37.7, "unit": "s"},
      {"measurement": "Subject APTT", "setting": "[3]; NH4 Conc. 20 mM in the 310 μL total volume, subject 8", "value": 59.7, "unit": "s"},
      {"measurement": "APTT Average", "setting": "[3]; NH4 Conc. 30 mM in the 310 μL total volume", "value": 67.6, "unit": "s"},
      {"measurement": "Subject APTT", "setting": "[3]; NH4 Conc. 30 mM in the 310 μL total volume, subject 1", "value": 79.8, "unit": "s"},
      {"measurement": "Subject APTT", "setting": "[3]; NH4 Conc. 30 mM in the 310 μL total volume, subject 2", "value": 52.8, "unit": "s"},
      {"measurement": "Subject APTT", "setting": "[3]; NH4 Conc. 30 mM in the 310 μL total volume, subject 3", "value": 64.2, "unit": "s"},
      {"measurement": "Subject APTT", "setting": "[3]; NH4 Conc. 30 mM in the 310 μL total volume, subject 4", "value": 64.6, "unit": "s"},
      {"measurement": "Subject APTT", "setting": "[3]; NH4 Conc. 30 mM in the 310 μL total volume, subject 5", "value": 86.9, "unit": "s"},
      {"measurement": "Subject APTT", "setting": "[3]; NH4 Conc. 30 mM in the 310 μL total volume, subject 6", "value": 58.5, "unit": "s"},
      {"measurement": "Subject APTT", "setting": "[3]; NH4 Conc. 30 mM in the 310 μL total volume, subject 7", "value": 57.5, "unit": "s"},
      {"measurement": "Subject APTT", "setting": "[3]; NH4 Conc. 30 mM in the 310 μL total volume, subject 8", "value": 76.4, "unit": "s"},
      {"measurement": "APTT Average", "setting": "[3]; NH4 Conc. 40 mM in the 310 μL total volume", "value": 185.2, "unit": "s"},
      {"measurement": "Subject APTT", "setting": "[3]; NH4 Conc. 40 mM in the 310 μL total volume, subject 1", "value": 236.5, "unit": "s"},
      {"measurement": "Subject APTT", "setting": "[3]; NH4 Conc. 40 mM in the 310 μL total volume, subject 4", "value": 154.4, "unit": "s"},
      {"measurement": "Subject APTT", "setting": "[3]; NH4 Conc. 40 mM in the 310 μL total volume, subject 5", "value": 186.2, "unit": "s"},
      {"measurement": "Subject APTT", "setting": "[3]; NH4 Conc. 40 mM in the 310 μL total volume, subject 6", "value": 111.9, "unit": "s"},
      {"measurement": "Subject APTT", "setting": "[3]; NH4 Conc. 40 mM in the 310 μL total volume, subject 7", "value": 166.2, "unit": "s"},
      {"measurement": "Subject APTT", "setting": "[3]; NH4 Conc. 40 mM in the 310 μL total volume, subject 8", "value": 255.8, "unit": "s"}
    ]}
  ]
}
